The values that follow come from paper PMC3444674 (Bioorganic & medicinal chemistry, 2012).

Type in all cases: biochemical
Experiment [1] deals with T1, human DDAH-1 (Homo sapiens, UniProt O94760). Briefly: Time-dependent inactivation of human DDAH-1.
The target in experiment [2] is T1, human DDAH-1. As to the kind of experiment: Concentration-response and mode-of-inhibition assays for IC50 and Ki. The conditions noted are these: for Hill Coefficient: concentration-response plot, substrate 50 µM; for Mode of inhibition: varying substrate and inhibitor, large effect on KM, not on kcat.
The target in experiment [3] is T1, human DDAH-1. Briefly: Reversibility upon dilution into excess substrate. The following applies: enzyme-inhibitor mixture diluted into excess substrate.
Experiment [4] has as its target T2, P. aeruginosa isoform of DDAH (Pseudomonas aeruginosa, UniProt Q9I4E3).
T2 sequence (Q9I4E3 1-254): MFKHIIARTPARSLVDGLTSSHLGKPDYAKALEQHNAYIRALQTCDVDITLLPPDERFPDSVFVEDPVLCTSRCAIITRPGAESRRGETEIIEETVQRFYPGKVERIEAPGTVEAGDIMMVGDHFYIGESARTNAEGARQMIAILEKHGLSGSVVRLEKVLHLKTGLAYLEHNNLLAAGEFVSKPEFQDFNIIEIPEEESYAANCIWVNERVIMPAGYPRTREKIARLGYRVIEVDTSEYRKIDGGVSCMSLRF
Briefly: Inhibition of P. aeruginosa DDAH by reversible inhibitors. The following applies: at concentrations up to 1 mM.

T1 sequence (O94760 whole entry): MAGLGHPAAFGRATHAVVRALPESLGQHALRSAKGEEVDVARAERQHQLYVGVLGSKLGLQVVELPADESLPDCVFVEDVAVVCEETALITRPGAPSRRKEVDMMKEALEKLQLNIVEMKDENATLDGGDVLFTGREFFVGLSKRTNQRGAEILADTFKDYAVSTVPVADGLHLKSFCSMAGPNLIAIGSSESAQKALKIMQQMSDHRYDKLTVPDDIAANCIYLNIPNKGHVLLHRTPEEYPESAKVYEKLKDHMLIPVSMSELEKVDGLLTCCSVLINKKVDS

One may read the kinact/KI as the second-order rate constant of inactivation. `OCc1cc(Cl)ccn1` [Compound 11, 2-hydroxymethyl-4-chloropyridine]: in experiment [1], the kinact/KI is about 0.04 M⁻¹ s⁻¹.
In the case of `NCCSc1nc2ccccc2o1` [Compound 13, 2-(1,3-benzoxazol-2-ylthio)ethanamine], the “Ligand Efficiency” value in experiment [2] (calculated from experimental Ki values) is 0.3 kcal / mol / heavy (non-hydrogen) atom. Besides, in experiment [2], the “Hill Coefficient” value stood at 1.0 ± 0.3 and the Mode of inhibition result is “competitive”. In addition, the Reversibility of inhibition result in experiment [3] was “full activity was rapidly regained”.
As to `CCc1nc2ccccc2[nH]1` [Compound 12, 2-ethyl-benzimidazole], in experiment [2], the “Hill Coefficient” value was found to be 1.5 ± 0.2 and the Mode of inhibition result was “competitive”. In addition, the “Inhibition of P. aeruginosa DDAH” value in experiment [4] was “did not show any inhibition”. For the same compound, the Reversibility of inhibition entry in experiment [3] is on record as “full activity was rapidly regained”.
On to `Cc1cc(Br)ccn1` [Compound 10, 2-methyl-4-bromopyridine], for which the inactivation efficiency (kinact/KI) in experiment [1] was about 0.05 M⁻¹ s⁻¹.
